Source: patent US8436011B2, “Pyridinopyridinone derivatives, preparation thereof and therapeutic use thereof” (Sanofi, priority 2008, dated 2013)
pIC50: −log10 of the molar value. Read-outs that look alike come from different tables or passages of the source.

Key:
[1] = target: T1, fusion protein Tel/PDGF-R (PDGF-Rβ kinase domain) in HEK cells (Homo sapiens, UniProt P09619); assay: Ex vivo activity: plasma of orally treated mice tested on PDGF-R autophosphorylation in HEK Tel/PDGF-R cells (ELISA); design: species or system female Balb/c mice; details: HEK293, mouse, po, 30 mg/kg po, read-out: % inhibition of autophosphorylation of PDGFR tyrosine kinase in HEK cells
T1 construct: the transmembrane and intracellular part of the PDGF-Rβ receptor; N-terminal part of the Tel transcription factor (ETV6); expressed in transfected cells; host or cells: HEK cells (transient transfection); the other entry of the earlier key: ETV6 (P41212, Transcription factor ETV6)
T1 sequence (P09619 with tags, fused parts or gaps): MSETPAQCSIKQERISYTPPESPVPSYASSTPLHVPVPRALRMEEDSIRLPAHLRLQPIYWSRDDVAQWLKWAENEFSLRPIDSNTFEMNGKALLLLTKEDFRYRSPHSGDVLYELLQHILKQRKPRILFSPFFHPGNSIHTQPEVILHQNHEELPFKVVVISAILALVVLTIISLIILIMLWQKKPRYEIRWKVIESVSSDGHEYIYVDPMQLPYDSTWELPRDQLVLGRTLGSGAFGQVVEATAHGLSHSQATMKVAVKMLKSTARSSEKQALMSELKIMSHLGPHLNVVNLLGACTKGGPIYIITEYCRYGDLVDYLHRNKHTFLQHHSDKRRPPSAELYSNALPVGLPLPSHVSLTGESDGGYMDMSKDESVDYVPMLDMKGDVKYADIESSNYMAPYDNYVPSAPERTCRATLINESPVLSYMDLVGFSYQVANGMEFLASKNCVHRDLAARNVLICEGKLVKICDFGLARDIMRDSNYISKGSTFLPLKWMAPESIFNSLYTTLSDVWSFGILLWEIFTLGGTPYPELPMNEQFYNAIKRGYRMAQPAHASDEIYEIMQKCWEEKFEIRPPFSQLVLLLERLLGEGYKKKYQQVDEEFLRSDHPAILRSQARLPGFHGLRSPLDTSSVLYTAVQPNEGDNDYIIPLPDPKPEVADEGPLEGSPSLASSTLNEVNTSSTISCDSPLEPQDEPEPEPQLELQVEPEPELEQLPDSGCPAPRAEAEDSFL
Description: Ex vivo activity of the compounds of the invention was measured. These compounds are thus administered orally to female Balb/c mice at a dose of 10, 30 or 100 mg/kg in suspension or in solution in a vehicle such as methylcellulose/Tween and the inhibition of the tyrosine kinase activity is measured in vitro in a cell test, using plasma collected at 15 minutes, 1 hour and 4 hours.
1) Protocol for Administration of the Products to the Mice
The products are prepared in a mortar with 0.5% Tween 80 and 0.6% methylcellulose qs final volume. Depending on the case, preparations of different vehicles may be used: water, mixture of labrasol solutol 5% glucose-water. The suspended or dissolved products are administered by gavage (10 ml/kg) to female Balb/c mice 8 to 15 weeks old.
The animals are then collected at the time given by the protocol (15 min, 1 hour, 4 hours, 16 hours).
The animals are anaesthetized by intraperitoneal injection (10 ml/kg) of a ketamine (0.1 g/kg)-xylazine (20 mg/kg) mixture. […] The blood sample is collected from the vein or the artery using a dry syringe and needle. The blood is immediately transferred into heparin lithium tubes (BD microtainer). Centrifugation for 3 minutes at 12 000 rpm allows recovery of the plasma, on which the biochemical test may be performed after storage by freezing at −20° C.
2) Preparation of the HEK Tel/PDGF-R Cells and Measurement of the Phosphorylation of PDGF-R
In order to detect the ex vivo activity of the products using the mouse plasmas, the HEK cells are transiently transfected beforehand with an expression vector coding for the fusion protein Tel/PDGF-R (fusion protein described previously). After 24 hours of transfection, the cells are deprived of serum overnight and then incubated for 30 minutes with the animal plasmas treated with the products of the invention. The cells are then lysed in RIPA buffer, and detection of the phosphorylation of PDGF-Rβ is then performed via the ELISA technique, using a commercial kit (R&D Systems, DYC1767). The results are expressed as a percentage of inhibition of the autophosphorylation.
In this test of measurement of the ex vivo activity, the effect of the compounds of the invention is quantified by the percentage of inhibition of phosphorylation of the kinase domain of the PDGF-Rβ receptor in HEK cells, induced by the inhibitory activity of the product present in the plasma of the treated animals, as described in the following table: […]

[2] = target: T2, fusion protein Tel/PDGF-Rβ (BaF3 Tel/PDGF cells) (Homo sapiens, UniProt P09619); assay: Inhibition of PDGF-Rβ tyrosine kinase activity: proliferation of BaF3 Tel/PDGF cells (CellTiter-Glo, 72 h); assay type: cell-based, murine; details: 72 hours incubation, read-out: IC50 (concentration that inhibits 50% of the proliferation of the BaF3 Tel/PDGF cells)
T2 construct: the transmembrane and intracellular part of the PDGF-Rβ receptor; N-terminal part of the Tel transcription factor (ETV6); expressed in transfected cells; host or cells: murine haematopoietic cell line BaF/3; the other entry of the earlier key: ETV6 (P41212, Transcription factor ETV6)
T2 sequence (P09619 with tags, fused parts or gaps): as above
Description: Measurement of Inhibition of the Tyrosine Kinase Activity of the PDGF Beta (PDGF-Rβ) (Baf-3 tel/PDGFIRβ) Receptor:
This test consists in evaluating the effects of the compounds on the tyrosine kinase activity of the PDGF beta receptor.
The inhibitory effect of the compounds according to the invention towards the tyrosine kinase activity of the PDGF-R receptor was evaluated on the murine haematopoietic cell line BaF/3 transfected with a plasmid coding for the fusion protein Tel/PDGF-Rβ. This fusion protein is found in chronic myelomonocytic myeloid leukaemias (CMML). It comprises the N-terminal part of the Tel transcription factor and the transmembrane and intracellular part of the PDGF-Rβ receptor. This fusion protein is present in dimerized form (presence of an oligomerization domain in the N-terminal part of Tel) and, as a result, leads to constitutive activity of the kinase domain of PDGF-Rβ. This line BaF3 Tel/PDGF has been described in the literature several times and especially, in detailed manner, in the article by M. Carroll et al., PNAS, 1996, 93, 14845-14850.
The BaF3 Tel/PDGF cells are washed with phosphate buffer and inoculated in 96-well plates, at a density of 5×10^4 cells/ml ([…]), in RPMI 1640 containing 10% FCS, in the presence or absence of the test compounds. After incubation for 72 hours, the viable cells are quantified by measuring the cellular ATP by means of the CellTiter-Glo® kit (Promega, Cat G7571). The cells are treated according to the instructions given by the kit manufacturer, and the luminescence is measured using a Luminoskan (Ascent, Labsystem) with the following parameters: measurement: single; integration time: 1000 ms, lag time: 5 s.
It is thus seen that the compounds according to the invention have inhibitory activity on the tyrosine kinase activity of PDGF-Rβ. This activity is given by the concentration that inhibits 50% of the proliferation of the BaF3 Tel/PDGF cells (IC50).

inhibition at 30 mg/kg ([1]; plasma collected at 15 min) [%]	inhibition at 30 mg/kg ([1]; plasma collected at 1 h) [%]	inhibition at 30 mg/kg ([1]; plasma collected at 4 h) [%]	pIC50 [2]	melting point [°C]	Compound
55	62	17			CCn1c(N)c(C(=O)NC)c(=O)c2ccc(-c3ccc(CC(=O)NCCN4CCOCC4)cc3)nc21 [compound 18, 2-amino-1-ethyl-N-methyl-7-(4-{2-[(2-morpholin-4-ylethyl)amino]-2-oxoethyl}phenyl)-4-oxo-1,4-dihydro-1,8-naphthyridine-3-carboxamide]
58	67	20			CCN1C[C@H](F)C[C@H]1CNC(=O)Cc1ccc(-c2ccc3c(=O)c(C(=O)NC)c(N)n(CC)c3n2)cc1 [compound 26, 2-amino-1-ethyl-7-{4-[2-({[(2S,4R)-1-ethyl-4-fluoropyrrolidin-2-yl]methyl}-amino)-2-oxoethyl]phenyl}-N-methyl-4-oxo-1,4-dihydro-1,8-naphthyridine-3-carboxamide]
			7.46		CCn1c(N)c(C(=O)NC)c(=O)c2ccc(-c3ccc(CC(=O)NC[C@H]4CCCN4CCF)cn3)nc21 [compound 29, 2-amino-1-ethyl-7-{5-[2-({[(2R)-1-(2-fluoroethyl)pyrrolidin-2-yl]methyl}-amino)-2-oxoethyl]pyrid-2-yl}-N-methyl-4-oxo-1,4-dihydro-1,8-naphthyridine-3-carboxamide]
85	68	42			CCn1c(N)c(C(=O)NC)c(=O)c2ccc(-c3ccc(CC(=O)NC[C@H]4CCCN4CC(F)F)cc3)nc21 [compound 31, 2-amino-7-{4-[2-({[(2R)-1-(2,2-difluoroethyl)pyrrolidin-2-yl]methyl}amino)-2-oxoethyl]phenyl}-1-ethyl-N-methyl-4-oxo-1,4-dihydro-1,8-naphthyridine-3-carboxamide]
73	64	58			CCn1c(N)c(C(=O)NC)c(=O)c2ccc(-c3ccc(CC(=O)NC[C@H]4CCCN4CC(F)F)cn3)nc21 [compound 34, 2-amino-7-{5-[2-({[(2R)-1-(2,2-difluoroethyl)pyrrolidin-2-yl]methyl}amino)-2-oxoethyl]pyrid-2-yl}-1-ethyl-N-methyl-4-oxo-1,4-dihydro-1,8-naphthyridine-3-carboxamide]
			8.26	278	CCn1c(N)c(C(=O)NC)c(=O)c2ccc(-c3ccc(CC(=O)NCCCc4ccccc4)cc3)nc21 [compound 41, 2-amino-1-ethyl-N-methyl-4-oxo-7-(4-{2-oxo-2-[(3-phenylpropyl)amino]-ethyl}phenyl)-1,4-dihydro-1,8-naphthyridine-3-carboxamide]
			7.32	230	CCN1CCCC1CNC(=O)CCCc1ccc(-c2ccc3c(=O)c(C(=O)NC)c(N)n(CC)c3n2)cc1 (stereo not shown) [compound 47, 2-amino-1-ethyl-7-[4-(4-{[(1-ethylpyrrolidin-2-yl)methyl]amino}-4-oxobutyl)phenyl]-N-methyl-4-oxo-1,4-dihydro-1,8-naphthyridine-3-carboxamide]
			6.79	264	CCCNC(=O)c1c(N)n(CC)c2nc(-c3ccc(CC(=O)NCC4CCCN4CC)cc3)ccc2c1=O (stereo not shown) [compound 48, 2-amino-1-ethyl-7-[4-(2-{[(1-ethylpyrrolidin-2-yl)methyl]amino}-2-oxoethyl)phenyl]-4-oxo-N-propyl-1,4-dihydro-1,8-naphthyridine-3-carboxamide]
